Results reported in patent publication US20240158348A1, “HERBICIDAL CYCLIC AMIDES N-SUBSTITUTED WITH A HALOALKYLSULFONYLANILIDE GROUP” (FMC Corporation, priority 2021, published 2024).

Tests used:
Format in all cases: in vivo
[1] = tested on: ducksalad (Heteranthera limosa); assay: Test D flooded paddy test, ducksalad; set-up: key: 0 = no effect, 100 = complete control; details: 250 g ai/ha, Flood; applied to paddy water at 2-leaf stage; visual rating after 13 days; scale 0 (no effect) to 100 (complete control)
Outline: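 Test compounds applied directly to paddy water after pots were flooded to 3 cm above soil, with plants at 2-leaf stage; depth held throughout. Greenhouse for 13 days, then visual rating versus controls on 0–100 scale (0 no effect, 100 complete control); dash means no result.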

[2] = tested on: pigweed, palmer (palmer amaranth, Amaranthus palmeri); assay: Test C postemergence, palmer amaranth; details: for Pigweed, Palmer plant response rating: visual injury, 0 to 100 scale (0 no effect, 100 complete control); for Plant response rating (0 to 100 scale), Pigweed, Palmer: 0 is no effect, 100 is complete control
Outline: (§1)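 Ratings run from 0, meaning no effect, up to 100, meaning complete control, judged by eye against untreated plants. Treatment was a directed soil spray before emergence or a postemergence spray on 2–10 cm seedlings, with evaluation 10 or 12 days later.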

[3] = tested on: soybean (Glycine max); assay: Test C postemergence, soybean; details: for Soybean plant response rating: visual injury, 0 to 100 scale (0 no effect, 100 complete control); for Plant response rating (0 to 100 scale), Soybean: 0 is no effect, 100 is complete control
[4] = tested on: foxtail, giant (giant foxtail, Setaria faberi); assay: Test C postemergence, giant foxtail; details: for Foxtail, Giant plant response rating: visual injury, 0 to 100 scale (0 no effect, 100 complete control); for Plant response rating (0 to 100 scale), Foxtail, Giant: 0 is no effect, 100 is complete control
[5] = tested on: oat, wild (wild oat, Avena fatua); assay: Test C postemergence, wild oat; details: for Oat, Wild plant response rating: visual injury, 0 to 100 scale (0 no effect, 100 complete control); for Plant response rating (0 to 100 scale), Oat, Wild: 0 is no effect, 100 is complete control
[6] = tested on: blackgrass (Alopecurus myosuroides); assay: Test C postemergence, blackgrass; details: visual injury, 0 to 100 scale (0 no effect, 100 complete control)
Outline: as §1

[7] = tested on: galium (catchweed bedstraw, Galium aparine); assay: Test C postemergence, galium; details: for Galium plant response rating: visual injury, 0 to 100 scale (0 no effect, 100 complete control); for Plant response rating (0 to 100 scale), Galium: 0 is no effect, 100 is complete control
[8] = tested on: goosegrass (Eleusine indica); assay: Test C preemergence, goosegrass; details: 0 is no effect, 100 is complete control
Outline: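 Pre: soil sprayed at seeding. Post: seedlings treated at 1–2 leaves (2–10 cm). Vehicle non-phytotoxic solvent mix with surfactant; loam–sand medium; greenhouse; visual injury read at 10 or 12 days, scale 0–100.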

Structure (SMILES)	Plant response rating, Ducksalad [1]	Pigweed, Palmer plant response rating ([2]; 31 g ai/ha Postemergence)	Plant response rating (0 to 100 scale), Pigweed, Palmer ([2]; 125 g ai/ha Postemergence)	Soybean plant response rating ([3]; 31 g ai/ha Postemergence)	Plant response rating (0 to 100 scale), Soybean ([3]; 125 g ai/ha Postemergence)	Foxtail, Giant plant response rating ([4]; 31 g ai/ha Postemergence)	Plant response rating (0 to 100 scale), Foxtail, Giant ([4]; 125 g ai/ha Postemergence)	Oat, Wild plant response rating ([5]; 31 g ai/ha Postemergence)	Plant response rating (0 to 100 scale), Oat, Wild ([5]; 125 g ai/ha Postemergence)	Blackgrass plant response rating ([6]; 31 g ai/ha Postemergence)	Galium plant response rating ([7]; 31 g ai/ha Postemergence)	Plant response rating (0 to 100 scale), Galium ([7]; 125 g ai/ha Postemergence)	Plant response rating (0 to 100 scale), Goosegrass ([8]; 31 g ai/ha Preemergence)	Plant response rating (0 to 100 scale), Goosegrass ([8]; 125 g ai/ha Preemergence)	Pigweed, Palmer plant response rating ([2]; 125 g ai/ha Postemergence)	Soybean plant response rating ([3]; 125 g ai/ha Postemergence)	Foxtail, Giant plant response rating ([4]; 125 g ai/ha Postemergence)	Oat, Wild plant response rating ([5]; 125 g ai/ha Postemergence)	Blackgrass plant response rating ([6]; 125 g ai/ha Postemergence)	Galium plant response rating ([7]; 125 g ai/ha Postemergence)
CC(=O)N(c1cc(N2CCC(OC3CC3)C2=O)c(C)cc1C)S(=O)(=O)C(F)(F)F (stereo not drawn) [Compound 17]	95	40	90	60	80	90	90	30	70	70	90	100	100	100						
COC(=O)N(c1cc(N2CCC(OC3CC3)C2=O)c(C)cc1C)S(=O)(=O)C(F)(F)F (stereo not drawn) [Compound 16]	0	0	0	40	60	0	0	0	0	0	50	50	0	0						
C=C(C)COC1CCN(c2cc(NS(=O)(=O)C(F)(F)F)c(C)cc2C)C1=O (stereo not drawn) [Compound 59]	80	40		60		10		30		10	100		90	100	80	80	90	90	80	100
Cc1c(NS(=O)(=O)C(F)(F)F)cc(N2CCC(OC3CCC3)C2=O)c(C)c1C (stereo not drawn) [Compound 45]	85	70		80		30		10		10	100		100	100	90	100	80	30	40	100
CC(=O)N(c1cc(N2CCC(OC3CC3)C2=O)c(C)cc1Cl)S(=O)(=O)C(F)(F)F (stereo not drawn) [Compound 38]	65	50		70		50	90	50	60	40	90	100	100	100	80	80				
C#CCO/N=C1\CCN(c2cc(NS(=O)(=O)C(F)(F)F)c(C)cc2C)C1=O [Compound 13, N-[2,4-dimethyl-5-[2-oxo-3-[(2-propyn-1-yloxy)imino]-1-pyrrolidinyl]phenyl]-1,1,1-trifluoromethanesulfonamide]	100	80	90	100	100	60	90	90	90	80	100	100	90	100						
CO/N=C1\CCN(c2cc(NS(=O)(=O)C(F)(F)F)c(C)cc2C)C1=O [Compound 9, 1,1,1-trifluoro-N-[5-[3-(methoxyimino)-2-oxo-1-pyrrolidinyl]-2,4-dimethylphenyl]methanesulfonamide]	95	70	90	80	80	40	90	80	80	80	90	100	100	100						
Cc1c(NS(=O)(=O)C(F)(F)F)cc(N2CCC(OCC3CC3)C2=O)c(C)c1F (stereo not drawn) [Compound 63]	95	70		50		0		0		0	100		100	100	90	100	30	40	30	100
Cc1cc(C)c(N2CCC(OCC3CC3)C2=O)cc1NS(=O)(=O)C(F)(F)F (stereo not drawn) [Compound 22]	90	50	80	60	70	20	60	20	40	20	100	100	100	100						
Cc1cc(C)c(N2CCC(OCC3CCCC3)C2=O)cc1NS(=O)(=O)C(F)(F)F (stereo not drawn) [Compound 57]	90	40		80		60		10		40	50		90	100	70	100	70	10	80	90
CCOC(=O)N(c1cc(N2CCC(OC3CC3)C2=O)c(C)cc1C)S(=O)(=O)C(F)(F)F (stereo not drawn) [Compound 19]	0	0	10	80	80	0	20	0	30	0	30	90	0	70						
Cc1cc(C)c(N2CCC(OC3CC3)C2=O)cc1NS(=O)(=O)C(F)(F)F (single isomer, unassigned) [Compound 30]	90	60		50		50	80	50	80	50	80	100	90	100	90	60				
Cc1c(N2CCC(OC3CCC3)C2=O)cc(N(C(=O)OCC(C)C)S(=O)(=O)C(F)(F)F)c(C)c1C (stereo not drawn) [Compound 48]	95	30		30		20		10		10	90		80	100	70	70	60	20	30	100
Cc1cc(C)c(N(C(=O)OCC(C)C)S(=O)(=O)C(F)(F)F)cc1N1CCC(OC2CC2)C1=O (stereo not drawn) [Compound 21]	98	30	70	60	60	40	90	40	70	40	100	100	90	100						
